Key:
Test in all cases: relative viability (nuclei count vs DMSO), 5 days (fraction); higher = more cells survive
Motesanib + Lapatinib = compound: CC1(C)CNc2cc(NC(=O)c3cccnc3NCc3ccncc3)ccc21 [Motesanib] + CS(=O)(=O)CCNCc1ccc(-c2ccc3ncnc(Nc4ccc(OCc5cccc(F)c5)c(Cl)c4)c3c2)o1 [Lapatinib] (partner 2 µM)
Method in brief: (§1)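 Cells from lung cancer lines were seeded into 1536-well plates and, one day later, dosed by pin tool. Treatments were either a single drug or a fixed dose of an anchor drug with five library-drug doses (not always all listed) in √10 steps. After 5 days, nuclei were stained in a one-step fixation (final 0.05% Triton X-100, 1% formaldehyde, 1 ug/ml Hoechst) and counted on 4× images, and relative viability is the treated-to-vehicle nuclei ratio, as the median of duplicate plates.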

Motesanib + Navitoclax = compound: CC1(C)CNc2cc(NC(=O)c3cccnc3NCc3ccncc3)ccc21 [Motesanib] + CC1(C)CCC(c2ccc(Cl)cc2)=C(CN2CCN(c3ccc(C(=O)NS(=O)(=O)c4ccc(N[C@H](CCN5CCOCC5)CSc5ccccc5)c(S(=O)(=O)C(F)(F)F)c4)cc3)CC2)C1 [Navitoclax] (partner 0.5 µM)
Method in brief: as §1

[1] = compound: C[C@@]1(C(=O)Nc2ccc(F)nc2)CCCN1c1nc(Nc2cc(C3CC3)n[nH]2)c2cccn2n1 + CCNC(=O)c1noc(-c2cc(C(C)C)c(O)cc2O)c1-c1ccc(CN2CCOCC2)cc1 [Luminespib] (partner 0.01 µM)
Method in brief: as §1

[2] = compound: C[C@@]1(C(=O)Nc2ccc(F)nc2)CCCN1c1nc(Nc2cc(C3CC3)n[nH]2)c2cccn2n1 + Cc1nc(Nc2ncc(C(=O)Nc3c(C)cccc3Cl)s2)cc(N2CCN(CCO)CC2)n1 [Dasatinib] (partner 0.075 µM)
Method in brief: as §1

Row | Cell Line | relative viability (Motesanib + Lapatinib; first compound 0.01 µM) | relative viability (Motesanib + Lapatinib; first compound 0.03162 µM) | relative viability (Motesanib + Lapatinib; first compound 0.1 µM) | relative viability (Motesanib + Lapatinib; first compound 0.3162 µM) | relative viability (Motesanib + Lapatinib; first compound 1 µM) | relative viability (Motesanib + Navitoclax; first compound 0.01 µM) | relative viability (Motesanib + Navitoclax; first compound 0.03162 µM) | relative viability (Motesanib + Navitoclax; first compound 0.1 µM) | relative viability (Motesanib + Navitoclax; first compound 0.3162 µM) | relative viability (Motesanib + Navitoclax; first compound 1 µM) | relative viability ([1]; first compound 0.04 µM) | relative viability ([1]; first compound 0.1265 µM) | relative viability ([1]; first compound 0.4 µM) | relative viability ([1]; first compound 1.265 µM) | relative viability ([2]; first compound 0.04 µM) | relative viability ([2]; first compound 0.1265 µM) | relative viability ([2]; first compound 0.4 µM) | relative viability ([2]; first compound 1.265 µM)
1 | NCI-H1975 | 0.873 | 0.815 | 0.89 | 0.907 | 0.993 | 1.11 | 1.12 | 1.05 | 1.11 | 1.26 | 0.272 | 0.117 | 0.128 | 0.187 | 0.263 | 0.306 | 0.181 | 0.154
2 | CAL-12T |  |  | 0.67 | 0.649 | 0.65 | 1.34 | 1.47 | 1.3 | 1.24 | 1.28 | 0.446 | 0.391 | 0.487 | 0.116 | 0.239 | 0.146 | 0.101 | 0.0918
3 | NCI-H1623 |  |  |  |  |  |  |  |  |  |  | 0.47 | 0.368 | 0.345 | 0.403 | 0.465 | 0.247 | 0.438 | 0.412
4 | HCC-44 | 0.989 | 0.952 | 1.02 | 1.04 | 1.03 | 0.986 | 0.96 | 0.994 | 1.04 | 0.997 | 0.829 | 0.744 | 0.623 | 0.732 |  |  |  | 
5 | EKVX | 0.201 | 0.21 | 0.225 | 0.204 | 0.246 | 0.88 | 1.11 | 1.06 | 0.989 | 0.961 | 0.804 | 0.67 | 0.683 | 0.935 | 0.439 | 0.4 | 0.32 | 0.294
6 | NCI-H1703 | 1.05 | 0.679 | 0.526 | 0.334 | 0.323 | 1.25 | 1.05 | 0.494 | 0.299 | 0.27 |  |  |  |  |  |  |  | 
7 | Calu-6 | 1.06 | 1.05 | 1.02 | 0.997 | 0.999 | 0.877 | 0.748 | 0.852 | 0.758 | 0.76 |  |  |  |  |  |  |  | 
8 | EBC-1 | 0.268 | 0.206 | 0.223 | 0.211 | 0.223 | 0.48 | 0.419 | 0.377 | 0.47 | 0.417 |  |  |  |  |  |  |  | 
9 | NCI-H358 | 0.489 | 0.472 | 0.424 | 0.555 | 0.463 |  |  |  |  |  | 0.35 | 0.143 | 0.111 | 0.238 | 0.128 | 0.123 | 0.103 | 0.124
10 | HCC-78 | 0.662 | 0.785 | 0.63 | 0.913 | 0.916 | 0.817 | 0.862 | 0.825 | 0.818 | 0.947 |  |  |  |  | 0.421 | 0.269 | 0.256 | 0.184
11 | IA-LM | 0.88 | 0.723 | 0.703 | 0.645 | 0.729 | 0.803 | 0.827 | 0.737 | 0.673 | 0.631 |  |  |  |  |  |  |  | 
12 | NCI-H650 | 0.815 | 0.932 | 0.897 | 1.13 | 0.888 |  |  |  |  |  | 0.797 | 0.426 | 0.536 | 0.499 | 0.404 | 0.283 | 0.321 | 0.29
13 | ChaGo-K-1 |  |  |  |  |  |  | 0.691 | 0.862 | 1.03 | 1.21 | 0.519 | 0.503 | 0.455 | 0.613 | 0.505 | 0.486 | 0.522 | 0.443
14 | NCI-H2342 |  |  |  |  |  |  |  |  |  |  | 0.63 | 0.606 | 0.505 | 0.499 | 0.356 | 0.26 | 0.294 | 0.264
15 | NCI-H1299 | 0.958 | 0.979 | 0.995 | 1.01 | 0.935 | 1.06 | 1.04 | 1.06 | 1.11 | 1.07 |  |  |  |  |  |  |  | 
16 | SW 900 |  |  |  |  |  |  |  |  |  |  | 0.18 | 0.198 | 0.188 | 0.155 | 0.555 | 0.32 | 0.507 | 0.346
17 | NCI-H522 |  |  |  |  |  |  |  |  |  |  | 1.04 | 1.02 | 1.04 | 0.974 | 0.856 | 0.628 | 0.775 | 0.789
18 | HCC-366 | 0.913 | 1.08 | 1.06 | 1.13 | 1.06 | 0.917 | 0.975 | 0.972 | 0.998 | 1.19 |  |  |  |  | 0.374 | 0.141 | 0.201 | 0.061
19 | A549 | 0.965 | 0.975 | 0.989 | 1.09 | 0.955 | 1.19 | 1.23 | 1.17 | 1.34 | 1.32 |  |  |  |  |  |  |  | 
20 | NCI-H661 | 0.429 | 0.563 | 0.511 | 0.386 | 0.49 |  |  |  |  |  | 0.973 | 1.06 | 1.05 | 1.02 | 0.762 | 0.841 | 0.669 | 0.517
21 | NCI-H1563 | 0.9 | 0.991 | 1.08 | 0.923 | 0.951 |  |  |  |  |  | 0.545 | 0.506 | 0.547 | 0.528 | 0.404 | 0.413 | 0.343 | 0.323
22 | ABC-1 | 1.12 | 0.945 | 1.01 | 1.27 | 1.17 |  |  |  |  |  | 0.63 | 0.519 | 0.244 | 0.308 | 0.51 | 0.395 | 0.366 | 0.204
23 | LCLC-103H |  |  |  |  |  |  |  |  |  |  | 0.92 | 0.766 | 0.733 | 0.927 | 0.412 | 0.35 | 0.237 | 0.174
24 | NCI-H441 |  |  |  |  |  | 0.706 | 0.729 | 0.627 | 0.641 | 0.796 | 0.258 | 0.175 | 0.221 | 0.267 | 0.385 | 0.155 | 0.223 | 0.203
